Source: patent US12077503B2, “Substituted cyclic amides and their use as herbicides” (FMC CORPORATION, priority 2015, dated 2024)

Columns and labels:
Type in all cases: in vivo
[1] = system: wheat (Triticum aestivum); test: Test A postemergence; conditions: postemergence; for Plant response rating, Wheat: 0 to 100 scale (0 no effect, 100 complete control)
In short: (§1)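 Ratings of 0 (no effect) to 100 (complete control) come from visual comparison with untreated controls roughly 10 d after treatment. Test chemicals, formulated in a non-phytotoxic solvent mixture with surfactant, were applied either as a preemergence directed soil spray on seeded soil or postemergence to one- to two-leaf plants 2 to 10 cm tall.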

[2] = system: barnyardgrass (Echinochloa crus-galli); test: Test A postemergence; conditions: postemergence; for Plant response rating, Barnyardgrass: 0 to 100 scale (0 no effect, 100 complete control)
In short: as §1

corn (Zea mays) = test: Test A postemergence; conditions: postemergence; for Plant response rating, Corn: 0 to 100 scale (0 no effect, 100 complete control)
In short: as §1

[3] = system: Galium (catchweed bedstraw, Galium aparine); test: Test A postemergence; conditions: postemergence; for Plant response rating, Galium: 0 to 100 scale (0 no effect, 100 complete control)
In short: as §1

Kochia (Kochia scoparia) [4] = test: Test A postemergence; conditions: postemergence; for Plant response rating, Kochia: 0 to 100 scale (0 no effect, 100 complete control)
In short: as §1

[5] = system: pigweed (Amaranthus retroflexus); test: Test A postemergence; conditions: postemergence; for Plant response rating, Pigweed: 0 to 100 scale (0 no effect, 100 complete control)
In short: as §1

[6] = system: blackgrass (Alopecurus myosuroides); test: Test A postemergence; conditions: postemergence; for Plant response rating, Blackgrass: 0 to 100 scale (0 no effect, 100 complete control)
In short: as §1

[7] = system: ragweed (common ragweed, Ambrosia elatior); test: Test A postemergence; conditions: postemergence; for Plant response rating, Ragweed: 0 to 100 scale (0 no effect, 100 complete control)
In short: as §1

[8] = system: giant foxtail (Setaria faberii); test: Test A postemergence; conditions: postemergence; for Plant response rating, Foxtail, Giant: 0 to 100 scale (0 no effect, 100 complete control)
In short: as §1

[9] = system: ryegrass, Italian (Italian ryegrass, Lolium multiflorum); test: Test A postemergence; conditions: postemergence; for Plant response rating, Ryegrass, Italian: 0 to 100 scale (0 no effect, 100 complete control)
In short: as §1

[10] = system: ducksalad (Heteranthera limosa); test: Test B flooded paddy test; conditions: Flood, 250 g ai/ha; for Plant response rating, Ducksalad: 0 to 100 scale where 0 is no effect and 100 is complete control, 13 to 15 d
In short: (§2)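 Visual ratings (0 none to 100 complete control) are relative to untreated plants, taken 13–15 d after treatment in a greenhouse. Test material went straight into floodwater standing 3 cm above the soil, kept constant, on plants at the 2-leaf stage.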

[11] = system: barnyardgrass (Echinochloa crus-galli); test: Test B flooded paddy test; conditions: Flood, 250 g ai/ha; for Plant response rating, Barnyardgrass: 0 to 100 scale where 0 is no effect and 100 is complete control, 13 to 15 d
In short: as §2

rice (Oryra sativa) = test: Test B flooded paddy test; conditions: Flood, 250 g ai/ha; for Plant response rating, Rice: 0 to 100 scale where 0 is no effect and 100 is complete control, 13 to 15 d
In short: as §2

[12] = system: sedge, umbrella (small-flower umbrella sedge, Cyperus difformis); test: Test B flooded paddy test; conditions: Flood, 250 g ai/ha; scale of 0 to 100 where 0 is no effect and 100 is complete control
In short: as §2

[13] = system: barnyardgrass (Echinochloa crus-galli); test: Test A preemergence
In short: as §1

Kochia (Kochia scoparia) [14] = test: Test A preemergence
In short: as §1

[15] = system: pigweed (Amaranthus retroflexus); test: Test A preemergence
[16] = system: ragweed (common ragweed, Ambrosia elatior); test: Test A preemergence
In short: as §1

[17] = system: giant foxtail (Setaria faberii); test: Test A preemergence
In short: as §1

[18] = system: ryegrass, Italian (Italian ryegrass, Lolium multiflorum); test: Test A preemergence
In short: as §1

[19] = 125 g ai/ha, visual injury after approximately 10 d
[20] = 500 g ai/ha, visual injury, approx. 10 d
[21] = 125 g ai/ha, visual rating after approx. 10 d
[22] = 125 g ai/ha, Preemergence, visual injury after approximately 10 d, 0 to 100 scale where 0 is no effect and 100 is complete control
[23] = 500 g ai/ha, preemergence, 0 to 100 scale, 0 = no effect, 100 = complete control
[24] = 125 g ai/ha, preemergence, visual rating after approx. 10 d, 0 to 100 scale where 0 is no effect and 100 is complete control
[25] = 125 g ai/ha, visual injury rating after approximately 10 d
[26] = scale of 0 to 100 where 0 is no effect and 100 is complete control
[27] = 125 g ai/ha, preemergence, 0 to 100 scale where 0 is no effect and 100 is complete control
[28] = 500 g ai/ha, Preemergence, visual injury vs untreated controls after approximately 10 d

For CN1CC(c2ccc(C(C)(F)F)cc2)C(C(=O)Nc2ccc(F)cc2F)C1=O (centres unmarked) [Compound 693], the “Plant response rating, Wheat” value [1, 19] was 0, the “Plant response rating, Wheat” value [1, 20] was 50 and the “Plant response rating, Barnyardgrass” value [2, 21] was 70. The “Plant response rating, Barnyardgrass” value [2, 20] was 80, the “Plant response rating, Corn” value (corn (Zea mays); [19]) was 40 and the “Plant response rating, Corn” value (corn (Zea mays); [20]) was 70. The “Plant response rating, Galium” value [3, 19] was 60, the “Plant response rating, Galium” value [3, 20] was 70 and the “Plant response rating, Kochia” value (Kochia (Kochia scoparia) [4]; [19]) was 60. For the same compound, the “Plant response rating, Kochia” value (Kochia (Kochia scoparia) [4]; [20]) was 70, the “Plant response rating, Pigweed” value [5, 19] was 10 and the “Plant response rating, Pigweed” value [5, 20] was 70. For the same compound, the “Plant response rating, Blackgrass” value [6, 21] was 10, the “Plant response rating, Blackgrass” value [6, 20] was 50 and the “Plant response rating, Ragweed” value [7, 19] was 0. The “Plant response rating, Ragweed” value [7, 20] was 10, the “Plant response rating, Foxtail, Giant” value [8, 19] was 80 and the “Plant response rating, Foxtail, Giant” value [8, 20] was 80. The “Plant response rating, Ryegrass, Italian” value [9, 19] was 50, the “Plant response rating, Ryegrass, Italian” value [9, 20] was 70 and the “Plant response rating, Ducksalad” value [10] was 70. The “Plant response rating, Barnyardgrass” value [11] was 75, the “Plant response rating, Rice” value (rice (Oryra sativa)) was 20 and the “Sedge, Umbrella plant response rating” value [12] was 0. The “Plant response rating, Barnyardgrass” value [13, 22] was 80, the “Plant response rating, Barnyardgrass” value [13, 23] was 90 and the “Plant response rating, Kochia” value (Kochia (Kochia scoparia) [14]; [22]) was 80. For the same compound, the “Plant response rating, Kochia” value (Kochia (Kochia scoparia) [14]; [23]) was 90, the “Plant response rating, Pigweed” value [15, 24] was 70 and the “Plant response rating, Pigweed” value [15, 23] was 80. The “Plant response rating, Ragweed” value [16, 24] was 50, the “Plant response rating, Ragweed” value [16, 23] was 60 and the “Plant response rating, Foxtail, Giant” value [17, 22] was 90. The “Plant response rating, Foxtail, Giant” value [17, 23] was 90, the “Plant response rating, Ryegrass, Italian” value [18, 24] was 60 and the “Plant response rating, Ryegrass, Italian” value [18, 23] was 70.

In the case of CCC1(C(=O)Nc2cccc(F)c2F)C(=O)N(C)CC1c1cccc(C(F)(F)F)c1 (centres unmarked) [Compound 694], the “Plant response rating, Wheat” value [1, 19] was 0, the “Plant response rating, Wheat” value [1, 20] was 0 and the “Plant response rating, Barnyardgrass” value [2, 21] was 50. For the same compound, the “Plant response rating, Barnyardgrass” value [2, 20] was 70, the “Plant response rating, Corn” value (corn (Zea mays); [19]) was 0 and the “Plant response rating, Corn” value (corn (Zea mays); [20]) was 0. For the same compound, the “Plant response rating, Galium” value [3, 19] was 0, the “Plant response rating, Galium” value [3, 20] was 0 and the “Plant response rating, Kochia” value (Kochia (Kochia scoparia) [4]; [19]) was 0. For the same compound, the “Plant response rating, Kochia” value (Kochia (Kochia scoparia) [4]; [20]) was 0, the “Plant response rating, Pigweed” value [5, 19] was 20 and the “Plant response rating, Pigweed” value [5, 20] was 50. The “Plant response rating, Blackgrass” value [6, 21] was 10, the “Plant response rating, Blackgrass” value [6, 20] was 30 and the “Plant response rating, Ragweed” value [7, 19] was 0. For the same compound, the “Plant response rating, Ragweed” value [7, 20] was 0, the “Plant response rating, Foxtail, Giant” value [8, 19] was 50 and the “Plant response rating, Foxtail, Giant” value [8, 20] was 80. The “Plant response rating, Ryegrass, Italian” value [9, 19] was 0, the “Plant response rating, Ryegrass, Italian” value [9, 20] was 50 and the “Plant response rating, Ducksalad” value [10] was 20. The “Plant response rating, Barnyardgrass” value [11] was 0, the “Plant response rating, Rice” value (rice (Oryra sativa)) was 0 and the “Sedge, Umbrella plant response rating” value [12] was 0. For the same compound, the “Plant response rating, Barnyardgrass” value [13, 22] was 70, the “Plant response rating, Barnyardgrass” value [13, 23] was 90 and the “Plant response rating, Kochia” value (Kochia (Kochia scoparia) [14]; [22]) was 0. The “Plant response rating, Kochia” value (Kochia (Kochia scoparia) [14]; [23]) was 0, the “Plant response rating, Pigweed” value [15, 24] was 0 and the “Plant response rating, Pigweed” value [15, 23] was 0. For the same compound, the “Plant response rating, Ragweed” value [16, 24] was 0, the “Plant response rating, Ragweed” value [16, 23] was 0 and the “Plant response rating, Foxtail, Giant” value [17, 22] was 90. For the same compound, the “Plant response rating, Foxtail, Giant” value [17, 23] was 90, the “Plant response rating, Ryegrass, Italian” value [18, 24] was 0 and the “Plant response rating, Ryegrass, Italian” value [18, 23] was 10.

In the case of O=C1NC[C@H](c2cccc(C(F)(F)F)c2)[C@H]1C(=O)Nc1ccccc1[N+](=O)[O-] [Compound 825], the “Wheat plant response rating (0 to 100 scale, 0 no effect, 100 complete control)” value [1, 25] was 40, the “Barnyardgrass plant response rating (0 to 100 scale, 0 no effect, 100 complete control)” value [2, 25] was 80 and the “Corn plant response rating (0 to 100 scale, 0 no effect, 100 complete control)” value (corn (Zea mays); [25]) was 20. For the same compound, the “Galium plant response rating (0 to 100 scale, 0 no effect, 100 complete control)” value [3, 25] was 30, the “Kochia plant response rating (0 to 100 scale, 0 no effect, 100 complete control)” value (Kochia (Kochia scoparia) [4]; [25]) was 0 and the “Pigweed plant response rating (0 to 100 scale, 0 no effect, 100 complete control)” value [5, 25] was 0. For the same compound, the “Blackgrass plant response rating (0 to 100 scale, 0 no effect, 100 complete control)” value [6, 25] was 40, the “Ragweed plant response rating (0 to 100 scale, 0 no effect, 100 complete control)” value [7, 25] was 20 and the “Foxtail, Giant plant response rating (0 to 100 scale, 0 no effect, 100 complete control)” value [8, 25] was 90. The “Ryegrass, Italian plant response rating (0 to 100 scale, 0 no effect, 100 complete control)” value [9, 25] was 20, the “Ducksalad plant response rating” value [10, 26] was 80 and the “Barnyardgrass plant response rating” value [11, 26] was 0. The “Rice plant response rating” value (rice (Oryra sativa); [26]) was 25, the “Sedge, Umbrella plant response rating” value [12] was 0 and the “Barnyardgrass plant response rating” value [13, 27] was 70. The “Barnyardgrass plant response rating (0 to 100 scale where 0 is no effect and 100 is complete control)” value [13, 28] was 90, the “Kochia plant response rating” value (Kochia (Kochia scoparia) [14]; [27]) was 20 and the “Kochia plant response rating (0 to 100 scale where 0 is no effect and 100 is complete control)” value (Kochia (Kochia scoparia) [14]; [28]) was 60. The “Pigweed plant response rating” value [15, 27] was 0, the “Pigweed plant response rating (0 to 100 scale where 0 is no effect and 100 is complete control)” value [15, 28] was 30 and the “Ragweed plant response rating” value [16, 27] was 20. For the same compound, the “Ragweed plant response rating (0 to 100 scale where 0 is no effect and 100 is complete control)” value [16, 28] was 20, the “Foxtail, Giant plant response rating” value [17, 27] was 90 and the “Foxtail, Giant plant response rating (0 to 100 scale where 0 is no effect and 100 is complete control)” value [17, 28] was 90. For the same compound, the “Ryegrass, Italian plant response rating” value [18, 27] was 20 and the “Ryegrass, Italian plant response rating (0 to 100 scale where 0 is no effect and 100 is complete control)” value [18, 28] was 40.
